Data from PMC12281424, “A Rac-specific competitive inhibitor of guanine nucleotide binding reduces metastasis in triple-negative breast cancer” (Cell Reports Medicine, 2025).
pIC50: −log10 of the molar value.

Assays:
Histamine H1 = Histamine H1 (Homo sapiens, UniProt P35367); assay: Safety screen; assay type: binding
Method: (§1) Blood cell counts, kinase profiler, safety screen, bacterial cytotoxicity, Ames, micronucleus assays were performed by the company Eurofins (France). The kinase profiler was performed by the company Eurofins (Discovery, Panlab and Cerep).

Met(Y1248H)(h) = Met(Y1248H)(h) (Homo sapiens, UniProt P08581, Y1230H); assay: Kinase Profiler; assay type: biochemical
Method: (§2) The kinase profiler was performed by the company Eurofins (Discovery, Panlab and Cerep).

DYRK2(h) = DYRK2(h) (Homo sapiens, UniProt Q92630); assay: Kinase Profiler; assay type: biochemical
Method: as §2

ARK5(h) = ARK5(h) (Homo sapiens, UniProt O60285); assay: Kinase Profiler; assay type: biochemical
Method: as §1

MST3(h) = MST3(h) (Homo sapiens, UniProt Q9Y6E0); assay: Kinase Profiler; assay type: biochemical
Method: as §2

PKAcβ(h) = PKAcβ(h) (Homo sapiens, UniProt P22694); assay: Kinase Profiler; assay type: biochemical
Method: as §1

[1] = biological target: Serotonin (5-Hydroxytryptamine) 5-HT1B (Homo sapiens, UniProt P28222); assay: Safety screen; assay type: binding
Method: as §1

Aurora-C(h) = Aurora-C(h) (Homo sapiens, UniProt Q9UQB9); assay: Kinase Profiler; assay type: biochemical
Chain of Aurora-C(h) (Q9UQB9 whole entry): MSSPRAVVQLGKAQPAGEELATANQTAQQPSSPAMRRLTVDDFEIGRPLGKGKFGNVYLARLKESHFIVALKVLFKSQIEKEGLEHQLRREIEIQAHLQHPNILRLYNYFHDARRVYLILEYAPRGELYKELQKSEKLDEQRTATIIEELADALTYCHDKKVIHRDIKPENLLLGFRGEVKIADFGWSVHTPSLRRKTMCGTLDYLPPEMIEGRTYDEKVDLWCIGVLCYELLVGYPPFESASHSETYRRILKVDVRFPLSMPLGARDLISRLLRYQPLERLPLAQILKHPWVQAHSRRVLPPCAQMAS
Method: as §1

TTBK1(h) = TTBK1(h) (Homo sapiens, UniProt Q5TCY1); assay: Kinase Profiler; assay type: biochemical
Chain of TTBK1(h) (Q5TCY1 whole entry): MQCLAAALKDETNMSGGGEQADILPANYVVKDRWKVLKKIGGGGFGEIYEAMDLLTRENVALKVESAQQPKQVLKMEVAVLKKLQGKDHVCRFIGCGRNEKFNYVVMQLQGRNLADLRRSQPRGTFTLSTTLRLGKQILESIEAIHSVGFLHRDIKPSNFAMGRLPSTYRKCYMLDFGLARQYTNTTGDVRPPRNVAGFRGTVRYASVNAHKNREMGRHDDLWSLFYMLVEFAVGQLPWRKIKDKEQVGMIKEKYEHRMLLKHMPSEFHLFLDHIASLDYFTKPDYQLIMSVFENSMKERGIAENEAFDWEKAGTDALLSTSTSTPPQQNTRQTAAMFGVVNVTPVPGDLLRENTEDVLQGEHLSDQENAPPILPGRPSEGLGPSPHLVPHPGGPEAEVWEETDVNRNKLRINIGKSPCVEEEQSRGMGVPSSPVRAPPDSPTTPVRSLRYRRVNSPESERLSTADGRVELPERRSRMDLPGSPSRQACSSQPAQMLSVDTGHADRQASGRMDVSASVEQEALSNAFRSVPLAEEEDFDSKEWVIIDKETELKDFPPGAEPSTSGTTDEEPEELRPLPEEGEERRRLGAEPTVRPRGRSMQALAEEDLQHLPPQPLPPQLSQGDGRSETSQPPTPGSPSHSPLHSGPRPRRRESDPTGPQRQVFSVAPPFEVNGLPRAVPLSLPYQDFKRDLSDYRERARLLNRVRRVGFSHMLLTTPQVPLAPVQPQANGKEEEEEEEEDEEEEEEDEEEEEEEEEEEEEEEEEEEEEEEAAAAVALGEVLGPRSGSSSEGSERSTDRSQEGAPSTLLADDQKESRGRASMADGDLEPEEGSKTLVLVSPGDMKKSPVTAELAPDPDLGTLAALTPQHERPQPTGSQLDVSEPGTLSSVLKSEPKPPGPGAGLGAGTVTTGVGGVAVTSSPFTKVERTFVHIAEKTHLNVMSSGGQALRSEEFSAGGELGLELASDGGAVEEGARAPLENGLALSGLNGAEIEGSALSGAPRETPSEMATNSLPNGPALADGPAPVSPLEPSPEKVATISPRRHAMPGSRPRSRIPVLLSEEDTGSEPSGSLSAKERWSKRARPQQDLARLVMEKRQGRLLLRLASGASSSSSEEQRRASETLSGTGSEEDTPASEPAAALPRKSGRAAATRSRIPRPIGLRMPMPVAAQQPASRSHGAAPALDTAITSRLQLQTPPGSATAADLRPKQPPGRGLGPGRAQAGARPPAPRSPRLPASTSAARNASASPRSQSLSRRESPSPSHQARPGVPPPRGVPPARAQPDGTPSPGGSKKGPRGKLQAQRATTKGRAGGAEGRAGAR
Method: as §2

PASK(h) = PASK(h) (Homo sapiens, UniProt Q96RG2); assay: Kinase Profiler; assay type: biochemical
Method: as §2

Adrenergic α1A = Adrenergic α1A (Rattus norvegicus, UniProt P43140); assay: Safety screen; assay type: binding
Method: (§3) Blood cell counts, kinase profiler, safety screen, bacterial cytotoxicity, Ames, micronucleus assays were performed by the company Eurofins (France).

[2] = system: Glutamate, NMDA, Phencyclidine; assay: Safety screen; assay type: binding, rat
Method: as §1

Wee1(h) = Wee1(h) (Homo sapiens, UniProt P30291); assay: Kinase Profiler; assay type: biochemical
Chain of Wee1(h) (P30291 whole entry): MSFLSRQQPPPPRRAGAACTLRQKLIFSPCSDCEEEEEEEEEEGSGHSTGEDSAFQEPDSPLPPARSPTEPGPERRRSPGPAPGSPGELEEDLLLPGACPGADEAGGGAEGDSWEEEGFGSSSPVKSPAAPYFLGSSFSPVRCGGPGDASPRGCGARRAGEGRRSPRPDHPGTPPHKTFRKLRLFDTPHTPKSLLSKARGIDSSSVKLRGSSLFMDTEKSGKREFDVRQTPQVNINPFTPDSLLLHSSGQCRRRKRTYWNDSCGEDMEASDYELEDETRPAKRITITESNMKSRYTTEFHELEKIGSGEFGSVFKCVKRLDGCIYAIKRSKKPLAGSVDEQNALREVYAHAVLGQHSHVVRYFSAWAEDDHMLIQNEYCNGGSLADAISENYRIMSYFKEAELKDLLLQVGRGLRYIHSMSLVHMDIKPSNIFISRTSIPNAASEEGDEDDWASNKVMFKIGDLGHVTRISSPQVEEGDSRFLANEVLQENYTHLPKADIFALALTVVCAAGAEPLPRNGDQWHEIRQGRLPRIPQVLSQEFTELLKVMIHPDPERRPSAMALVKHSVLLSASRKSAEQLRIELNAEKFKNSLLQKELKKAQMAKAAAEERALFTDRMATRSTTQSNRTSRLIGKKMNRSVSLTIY
Method: as §2

JNK3(h) = JNK3(h) (Homo sapiens, UniProt P53779); assay: Kinase Profiler; assay type: biochemical
Method: as §2

CDK4/cyclinD3(h) = CDK4/cyclinD3(h) (Homo sapiens, UniProt P11802); assay: Kinase Profiler; assay type: biochemical
Chain of CDK4/cyclinD3(h) (P11802 whole entry): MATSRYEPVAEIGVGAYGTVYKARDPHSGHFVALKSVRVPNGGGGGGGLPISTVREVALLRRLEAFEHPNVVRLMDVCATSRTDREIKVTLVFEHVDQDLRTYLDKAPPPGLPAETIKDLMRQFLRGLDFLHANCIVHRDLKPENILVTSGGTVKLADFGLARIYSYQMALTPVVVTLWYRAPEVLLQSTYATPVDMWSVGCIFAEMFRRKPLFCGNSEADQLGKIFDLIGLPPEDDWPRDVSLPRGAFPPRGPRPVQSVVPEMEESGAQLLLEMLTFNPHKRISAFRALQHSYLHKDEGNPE
Chain of CDK4/cyclinD3(h) (P30281 whole entry partner): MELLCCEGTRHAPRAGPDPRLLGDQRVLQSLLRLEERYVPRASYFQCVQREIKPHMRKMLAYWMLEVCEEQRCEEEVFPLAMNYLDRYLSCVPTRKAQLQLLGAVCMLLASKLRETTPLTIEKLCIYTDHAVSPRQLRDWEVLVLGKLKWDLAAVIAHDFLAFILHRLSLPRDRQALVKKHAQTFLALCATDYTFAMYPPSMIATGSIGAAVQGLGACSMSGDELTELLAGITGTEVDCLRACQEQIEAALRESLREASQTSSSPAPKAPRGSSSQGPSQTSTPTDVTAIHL
Method: as §1

JAK2(h) = JAK2(h) (Homo sapiens, UniProt O60674); assay: Kinase Profiler; assay type: biochemical
Method: as §2

TTK(h) = TTK(h) (Homo sapiens, UniProt P33981); assay: Kinase Profiler; assay type: biochemical
Method: as §2

MRCKγ(h) = MRCKγ(h) (Homo sapiens, UniProt Q6DT37); assay: Kinase Profiler; assay type: biochemical
Method: as §2

PrKX(h) = PrKX(h) (Homo sapiens, UniProt P51817); assay: Kinase Profiler; assay type: biochemical
Method: as §2

Chemokine CCR1 = Chemokine CCR1 (Homo sapiens, UniProt P32246); assay: Safety screen; assay type: binding
Method: as §3

PKCμ(h) = PKCμ(h) (Homo sapiens, UniProt Q15139); assay: Kinase Profiler; assay type: biochemical
Method: as §2

LOK(h) = LOK(h) (Homo sapiens, UniProt O94804); assay: Kinase Profiler; assay type: biochemical
Chain of LOK(h) (O94804 whole entry): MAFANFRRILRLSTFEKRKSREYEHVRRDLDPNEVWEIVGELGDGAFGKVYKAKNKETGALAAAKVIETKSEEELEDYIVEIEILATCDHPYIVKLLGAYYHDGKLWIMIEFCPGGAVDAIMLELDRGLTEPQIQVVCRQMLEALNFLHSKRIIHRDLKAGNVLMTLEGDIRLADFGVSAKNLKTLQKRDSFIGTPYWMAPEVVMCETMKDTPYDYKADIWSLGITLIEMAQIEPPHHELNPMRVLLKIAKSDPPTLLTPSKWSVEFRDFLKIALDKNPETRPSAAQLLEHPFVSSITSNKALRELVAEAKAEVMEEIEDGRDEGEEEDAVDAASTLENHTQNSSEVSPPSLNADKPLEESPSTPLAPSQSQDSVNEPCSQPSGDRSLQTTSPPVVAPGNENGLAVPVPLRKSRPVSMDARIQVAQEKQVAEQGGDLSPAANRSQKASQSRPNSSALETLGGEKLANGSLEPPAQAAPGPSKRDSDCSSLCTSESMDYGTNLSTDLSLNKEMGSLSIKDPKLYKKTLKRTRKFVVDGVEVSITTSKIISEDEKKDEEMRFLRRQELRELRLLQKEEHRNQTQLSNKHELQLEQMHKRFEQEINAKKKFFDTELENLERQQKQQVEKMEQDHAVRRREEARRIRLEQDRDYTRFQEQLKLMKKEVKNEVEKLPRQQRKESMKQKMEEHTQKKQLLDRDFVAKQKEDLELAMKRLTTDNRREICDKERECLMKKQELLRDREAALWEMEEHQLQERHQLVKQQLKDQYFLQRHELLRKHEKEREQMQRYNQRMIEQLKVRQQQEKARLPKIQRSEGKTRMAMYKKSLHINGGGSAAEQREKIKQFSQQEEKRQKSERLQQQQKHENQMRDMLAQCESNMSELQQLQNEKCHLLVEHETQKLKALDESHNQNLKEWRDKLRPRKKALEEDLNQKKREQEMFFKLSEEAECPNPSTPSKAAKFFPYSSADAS
Method: as §2

Ros(h) = Ros(h) (Homo sapiens, UniProt P08922); assay: Kinase Profiler; assay type: biochemical
Method: as §1

GCK(h) = GCK(h) (Homo sapiens, UniProt Q12851); assay: Kinase Profiler; assay type: biochemical
Method: as §2

WNK3(h) = WNK3(h) (Homo sapiens, UniProt Q9BYP7); assay: Kinase Profiler; assay type: biochemical
Method: as §2

EGFR(L861Q)(h) = EGFR(L861Q)(h) (Homo sapiens, UniProt P00533, L861Q); assay: Kinase Profiler; assay type: biochemical
Method: as §2

ZIPK(h) = ZIPK(h) (Homo sapiens, UniProt O43293); assay: Kinase Profiler; assay type: biochemical
Method: as §2

MDA-MB-468 Luc cells = assay: Focus formation (clonogenic) assay; assay type: cell-based
Method: Figure 5 A41 decreases growth and invasiveness of TNBC cells in vitro (A) Representative images of RAC-GTP levels (red) in MDA-MB-468 Luc cells in the absence (CTL) and presence of EHT1864, NSC23766, or A41 (1 h at 10 μM) (left). Luciferase (Luc, green) was used to detect the cells. RAC-GTP mean fluorescence intensity was quantified inside the cell area (right) (n = 31–37 cells from 3 independent experiments; ∗p < 0.05, ∗∗∗p < 0.001) (scale bars: 10 μm). […] (C) Quantification of colony number of indicated cancer cell lines in the presence of A41 (10 μM) expressed as the percentage of control in the absence of A41. Results shown are representative of N > 3 independent experiments. (D) Immunoblot analysis and corresponding quantification of AKT and P44/42 expression and phosphorylation (pAKT, p44/42) in MDA-MB-468 Luc cells in the absence (−) and presence of NSC23766 or A41 (1 h at 10^−5 M). Results shown are representative of 3 independent experiments. ∗∗p < 0.01 vs. untreated cells, ^###p < 0.001 vs. NSC23766-treated cells. (E) 3D invasion assay of MDA-MB-468 Luc and cancer-associated fibroblasts (CAFs) and corresponding quantification (scale bars: 200 μm). […]
1000 cells/well from the indicated cancer cell lines were seeded in 6-wells plates and allowed to grow 2 days before treatments. […] The area occupied by the cells was then quantified with ImageJ software.

Mnk2(h) = Mnk2(h) (Homo sapiens, UniProt Q9HBH9); assay: Kinase Profiler; assay type: biochemical
Chain of Mnk2(h) (Q9HBH9 whole entry): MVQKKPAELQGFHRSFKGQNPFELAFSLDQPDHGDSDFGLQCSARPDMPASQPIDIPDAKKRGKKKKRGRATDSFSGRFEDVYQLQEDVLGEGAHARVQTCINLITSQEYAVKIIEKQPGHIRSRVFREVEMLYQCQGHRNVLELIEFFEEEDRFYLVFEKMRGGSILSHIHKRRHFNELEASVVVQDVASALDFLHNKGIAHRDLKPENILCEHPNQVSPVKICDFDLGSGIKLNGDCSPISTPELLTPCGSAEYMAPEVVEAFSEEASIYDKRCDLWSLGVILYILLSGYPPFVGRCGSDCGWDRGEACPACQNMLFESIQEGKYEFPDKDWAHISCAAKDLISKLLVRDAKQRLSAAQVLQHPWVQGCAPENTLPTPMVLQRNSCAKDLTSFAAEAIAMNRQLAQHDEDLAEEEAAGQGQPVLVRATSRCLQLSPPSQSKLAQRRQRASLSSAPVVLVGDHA
Method: as §2

CK1γ3(h) = CK1γ3(h) (Homo sapiens, UniProt Q9Y6M4); assay: Kinase Profiler; assay type: biochemical
Chain of CK1γ3(h) (Q9Y6M4 whole entry): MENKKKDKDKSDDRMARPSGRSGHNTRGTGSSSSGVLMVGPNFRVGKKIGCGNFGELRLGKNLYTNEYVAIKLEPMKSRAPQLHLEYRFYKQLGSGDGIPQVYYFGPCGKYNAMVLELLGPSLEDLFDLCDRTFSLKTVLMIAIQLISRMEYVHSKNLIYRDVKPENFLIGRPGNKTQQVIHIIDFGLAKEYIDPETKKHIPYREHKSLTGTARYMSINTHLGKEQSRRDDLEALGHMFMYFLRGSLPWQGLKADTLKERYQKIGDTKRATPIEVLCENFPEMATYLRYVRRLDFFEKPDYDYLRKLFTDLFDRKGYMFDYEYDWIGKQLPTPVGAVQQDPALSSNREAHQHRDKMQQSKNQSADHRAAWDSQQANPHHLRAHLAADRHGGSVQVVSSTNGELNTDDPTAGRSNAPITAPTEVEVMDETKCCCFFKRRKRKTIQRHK
Method: as §1

PKCβI(h) = PKCβI(h) (Homo sapiens, UniProt P05771); assay: Kinase Profiler; assay type: biochemical
Method: as §2

## COc1ccc(OC)c(NS(=O)(=O)c2ccc(NC(=O)CCSc3ccc(C)cc3)cc2)c1 [Compound A41]
Histamine H1
  % inh.: 41%
Met(Y1248H)(h)
  Activity(%): 120%
DYRK2(h)
  Activity(%): 104%
ARK5(h)
  Activity(%): 106%
MST3(h)
  Activity(%): 95%
PKAcβ(h)
  Activity(%): 116%
[1]
  % inh.: 15%
Aurora-C(h)
  Activity(%): 100%
TTBK1(h)
  Activity(%): 103%
PASK(h)
  Activity(%): 97%
Adrenergic α1A
  % inh.: 34%
[2]
  % inh.: -6%
Wee1(h)
  Activity(%): 112%
JNK3(h)
  Activity(%): 123%
CDK4/cyclinD3(h)
  Activity(%): 96%
JAK2(h)
  Activity(%): 114%
TTK(h)
  Activity(%): 103%
MRCKγ(h)
  Activity(%): 97%
PrKX(h)
  Activity(%): 98%
Chemokine CCR1
  % inh.: 2%
PKCμ(h)
  Activity(%): 104%
LOK(h)
  Activity(%): 112%
Ros(h)
  Activity(%): 139%
GCK(h)
  Activity(%): 114%
WNK3(h)
  Activity(%): 101%
EGFR(L861Q)(h)
  Activity(%): 107%
ZIPK(h)
  Activity(%): 103%
MDA-MB-468 Luc cells; dose-response curve, Figure 5B, read-out: IC50, colony formation
  pIC50: 5.68
MDA-MB-468 Luc cells; increasing concentrations
  colony formation: significantly inhibited colony formation in a dose-dependent manner
Mnk2(h)
  Activity(%): 107%
CK1γ3(h)
  Activity(%): 101%
PKCβI(h)
  Activity(%): 98%
